Measured values from patent publication US20260242353A1, “HETEROARYL DERIVATIVES AS DDRs INHIBITORS” (CHIESI FARMACEUTICI S.P.A., priority 2022, published 2026).

Legend:
DDR1 = molecular target: T1, DDR1 (Homo sapiens, UniProt Q08345); assay: LanthaScreen Europium Kinase Binding assay, DDR1; conditions: 5 nM DDR1, 20 nM Kinase Tracer 178, 1 h at rt; Ki from IC50 by Cheng-Prusoff; read-out: Ki DDR1
T1 construct: purchased Carna Biosciences
Outline: (§1)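 Compounds were incubated 1 h at rt with 5 nM DDR1 plus 20 nM Kinase Tracer 178, or 5 nM DDR2 plus 10 nM tracer, and 2 nM Eu anti-GST antibody in HEPES pH 7.5 buffer. Read-out was the TR-FRET 665/615 nm ratio. IC50 came from a 4-parameter fit and was converted to Ki by Cheng-Prusoff.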

DDR2 = molecular target: T2, DDR2 (Homo sapiens, UniProt Q16832); assay: LanthaScreen Europium Kinase Binding assay, DDR2; conditions: 5 nM DDR2, 10 nM Kinase Tracer 178, 1 h at rt; Ki from IC50 by Cheng-Prusoff; read-out: Ki DDR2
T2 construct: purchased Life Technologies
T2 sequence (Q16832 22-855): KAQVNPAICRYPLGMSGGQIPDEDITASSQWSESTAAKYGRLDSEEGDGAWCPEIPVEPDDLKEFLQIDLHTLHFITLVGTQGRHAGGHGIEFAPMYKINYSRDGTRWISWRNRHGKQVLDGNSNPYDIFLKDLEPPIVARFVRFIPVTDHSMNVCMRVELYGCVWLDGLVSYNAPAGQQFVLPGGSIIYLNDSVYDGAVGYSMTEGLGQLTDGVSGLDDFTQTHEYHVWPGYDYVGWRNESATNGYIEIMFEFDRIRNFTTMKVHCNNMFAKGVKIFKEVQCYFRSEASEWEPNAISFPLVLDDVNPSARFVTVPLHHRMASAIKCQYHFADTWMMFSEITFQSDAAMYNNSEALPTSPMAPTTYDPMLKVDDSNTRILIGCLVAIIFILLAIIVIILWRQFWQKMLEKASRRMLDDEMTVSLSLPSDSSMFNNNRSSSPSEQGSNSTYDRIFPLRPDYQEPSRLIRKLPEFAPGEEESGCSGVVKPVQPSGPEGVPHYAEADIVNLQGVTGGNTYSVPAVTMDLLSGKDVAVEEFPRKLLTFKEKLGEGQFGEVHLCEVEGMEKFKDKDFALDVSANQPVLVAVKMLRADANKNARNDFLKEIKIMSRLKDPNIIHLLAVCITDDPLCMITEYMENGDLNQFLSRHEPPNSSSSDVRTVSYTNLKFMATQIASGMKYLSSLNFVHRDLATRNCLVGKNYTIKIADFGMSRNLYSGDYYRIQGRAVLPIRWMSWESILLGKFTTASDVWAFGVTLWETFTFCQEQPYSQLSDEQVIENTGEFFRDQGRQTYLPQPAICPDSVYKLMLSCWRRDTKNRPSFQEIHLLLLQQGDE
Outline: as §1

T1 sequence (Q08345 19-913): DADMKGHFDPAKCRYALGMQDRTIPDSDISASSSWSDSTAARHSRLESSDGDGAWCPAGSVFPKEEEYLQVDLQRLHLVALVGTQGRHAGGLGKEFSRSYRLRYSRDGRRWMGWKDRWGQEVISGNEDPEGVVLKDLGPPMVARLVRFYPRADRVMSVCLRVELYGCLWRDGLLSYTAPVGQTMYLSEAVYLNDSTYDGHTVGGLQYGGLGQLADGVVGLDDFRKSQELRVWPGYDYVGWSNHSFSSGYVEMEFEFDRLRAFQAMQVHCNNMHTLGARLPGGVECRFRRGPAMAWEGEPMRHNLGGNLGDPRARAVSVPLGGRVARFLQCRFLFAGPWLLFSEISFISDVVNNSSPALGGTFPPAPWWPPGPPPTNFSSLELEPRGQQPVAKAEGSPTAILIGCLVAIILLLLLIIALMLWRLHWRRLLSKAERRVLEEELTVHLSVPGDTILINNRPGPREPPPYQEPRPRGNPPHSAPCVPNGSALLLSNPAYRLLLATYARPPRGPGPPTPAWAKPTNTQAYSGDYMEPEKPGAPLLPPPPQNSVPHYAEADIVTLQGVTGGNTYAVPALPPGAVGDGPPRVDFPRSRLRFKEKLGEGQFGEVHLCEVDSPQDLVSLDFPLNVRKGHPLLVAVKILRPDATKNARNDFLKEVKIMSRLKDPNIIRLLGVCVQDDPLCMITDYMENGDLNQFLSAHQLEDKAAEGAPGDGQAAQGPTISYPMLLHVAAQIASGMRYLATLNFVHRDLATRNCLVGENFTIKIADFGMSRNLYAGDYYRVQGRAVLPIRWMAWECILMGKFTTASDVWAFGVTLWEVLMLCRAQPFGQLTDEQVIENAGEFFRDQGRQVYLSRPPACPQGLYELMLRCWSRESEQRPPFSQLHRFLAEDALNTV

Row | Compound | Ki (DDR1) [nM] | Ki (DDR2) [nM]
1 | Cc1ccc(C(=O)Nc2cncc(C(F)(F)F)c2)cc1[C@@H]1CCN(c2cnn3ccc(C(=O)N4CCOCC4)cc23)C1 [Example 89, (S)-4-methyl-3-(1-(5-(morpholine-4-carbonyl)pyrazolo[1,5-a]pyridin-3-yl)pyrrolidin-3-yl)-N-(5-(trifluoromethyl)pyridin-3-yl)benzamide] | < 5 | 5 to 25
2 | Cc1ccc(C(=O)Nc2cc(OC(F)F)ccn2)cc1[C@@H]1CCN(c2cnn3cccnc23)C1 [Example 91, N-[4-(difluoromethoxy)-2-pyridyl]-4-methyl-3-[(3S)-1-pyrazolo[1,5-a]pyrimidin-3-ylpyrrolidin-3-yl]benzamide] | < 5 | < 5
3 | Cc1ccc(C(=O)Nc2cc(OC(F)F)ccn2)cc1[C@@H]1CCN(c2cnccn2)C1 [Example 92, N-[4-(difluoromethoxy)-2-pyridyl]-4-methyl-3-[(3S)-1-pyrazin-2-ylpyrrolidin-3-yl]benzamide] | < 5 | 5 to 25
4 | Cc1ccc(C(=O)Nc2cc(OC(F)F)ccn2)cc1[C@@H]1CCN(c2cnccc2C#N)C1 [Example 93, 3-[(3S)-1-(4-cyano-3-pyridyl)pyrrolidin-3-yl]-N-[4-(difluoromethoxy)-2-pyridyl]-4-methyl-benzamide] | < 5 | < 5
5 | Cc1ccc(C(=O)Nc2cc(OC(F)F)ccn2)cc1[C@@H]1CCN(c2cncc(C#N)n2)C1 [Example 94, (S)-3-(1-(6-cyanopyrazin-2-yl)pyrrolidin-3-yl)-N-(4-(difluoromethoxy)pyridin-2-yl)-4-methyl-benzamide] | < 5 | 5 to 25
6 | CCc1cc(NC(=O)c2ccc(C)c([C@@H]3CCN(c4cnn5cccnc45)C3)c2)no1 [Example 95, (S)-N-(5-ethylisoxazol-3-yl)-4-methyl-3-(1-(pyrazolo[1,5-a]pyrimidin-3-yl)pyrrolidin-3-yl)benzamide] | < 5 | < 5
7 | CCc1cc(NC(=O)c2ccc(C)c([C@@H]3CCN(c4cnn5ccncc45)C3)c2)no1 [Example 96, (S)-N-(5-ethylisoxazol-3-yl)-4-methyl-3-(1-(pyrazolo[1,5-a]pyrazin-3-yl)pyrrolidin-3-yl)benzamide] | < 5 | < 5
8 | COc1cnc2c(N3CC[C@@H](c4cc(C(=O)Nc5cncc(C(F)(F)F)c5)ccc4C)C3)cnn2c1 [Example 97, (S)-3-(1-(6-methoxypyrazolo[1,5-a]pyrimidin-3-yl)pyrrolidin-3-yl)-4-methyl-N-(5-(trifluoromethyl)pyridin-3-yl)benzamide] | < 5 | 5 to 25
9 | Cc1ccc(C(=O)Nc2cncc(OC(F)(F)F)c2)cc1[C@@H]1CCN(c2cnn3ccncc23)C1 [Example 98, (S)-4-methyl-3-(1-(pyrazolo[1,5-a]pyrazin-3-yl)pyrrolidin-3-yl)-N-(5-(trifluoromethoxy)pyridin-3-yl)benzamide] | < 5 | < 5
10 | CNc1ncc(N2CC[C@@H](c3cc(C(=O)Nc4cncc(C(F)(F)F)c4)ccc3C)C2)cn1 [Example 99, (S)-4-methyl-3-(1-(2-(methylamino)pyrimidin-5-yl)pyrrolidin-3-yl)-N-(5-(trifluoromethyl)pyridin-3-yl)benzamide] | < 5 | 5 to 25
11 | Cc1ccc(C(=O)Nc2cncc(C(F)(F)F)c2)cc1[C@@H]1CCN(c2cn[nH]c2)C1 [Example 100, (S)-3-(1-(1H-pyrazol-4-yl)pyrrolidin-3-yl)-4-methyl-N-(5-(trifluoromethyl)pyridin-3-yl)benzamide] | < 5 | 5 to 25
12 | Cc1ccc(C(=O)Nc2cncc(C(F)(F)F)c2)cc1[C@@H]1CCN(c2cnc3[nH]nc(CN(C)C)c3c2)C1 [Example 101, (S)-3-(1-(3-((dimethylamino)methyl)-1H-pyrazolo[3,4-b]pyridin-5-yl)pyrrolidin-3-yl)-4-methyl-N-(5-(trifluoromethyl)pyridin-3-yl)benzamide] | < 5 | 5 to 25
13 | Cc1ccc(C(=O)Nc2cncc(C(F)(F)F)c2)cc1[C@@H]1CCN(c2cnc3[nH]cc(C(=O)NC4COC4)c3c2)C1 [Example 102, (S)-5-(3-(2-methyl-5-((5-(trifluoromethyl)pyridin-3-yl)carbamoyl)phenyl)pyrrolidin-1-yl)-N-(oxetan-3-yl)-1H-pyrrolo[2,3-b]pyridine-3-carboxamide] | < 5 | 5 to 25
14 | Cc1ccc(C(=O)Nc2cncc(C(F)(F)F)c2)cc1[C@@H]1CCN(c2cncc(OCCO)c2)C1 [Example 103, (S)-3-(1-(5-(2-hydroxyethoxy)pyridin-3-yl)pyrrolidin-3-yl)-4-methyl-N-(5-(trifluoromethyl)pyridin-3-yl)benzamide] | < 5 | < 5
15 | Cc1ccc(C(=O)Nc2cncc(C(F)(F)F)c2)cc1[C@@H]1CCN(c2ncnc3sccc23)C1 [Example 106, (S)-4-methyl-3-(1-(thieno[2,3-d]pyrimidin-4-yl)pyrrolidin-3-yl)-N-(5-(trifluoromethyl)pyridin-3-yl)benzamide] | 5 to 25 | 5 to 25
16 | Cc1ccc(C(=O)Nc2cncc(C(F)(F)F)c2)cc1[C@@H]1CCN(c2ncnc3ccsc23)C1 [Example 107, (S)-4-methyl-3-(1-(thieno[3,2-d]pyrimidin-4-yl)pyrrolidin-3-yl)-N-(5-(trifluoromethyl)pyridin-3-yl)benzamide] | < 5 | < 5
17 | CNC(=O)c1cc2ncnc(N3CC[C@@H](c4cc(C(=O)Nc5cncc(C(F)(F)F)c5)ccc4C)C3)c2s1 [Example 108, (S)-N-methyl-4-(3-(2-methyl-5-((5-(trifluoromethyl)pyridin-3-yl)carbamoyl)phenyl)pyrrolidin-1-yl)thieno[3,2-d]pyrimidine-6-carboxamide] | < 5 | < 5
18 | COc1ccc(C(=O)Nc2cncc(C(F)(F)F)c2)cc1C1CCN(c2cnn3cccnc23)C1 (centres unmarked) [Example 112, 4-methoxy-3-(1-(pyrazolo[1,5-a]pyrimidin-3-yl)pyrrolidin-3-yl)-N-(5-(trifluoromethyl)pyridin-3-yl)benzamide] | < 5 | 5 to 25
19 | O=C(Nc1cncc(C(F)(F)F)c1)c1ccc(OC(F)F)c(C2CCN(c3cncnc3)C2)c1 (centres unmarked) [Example 113, 4-(difluoromethoxy)-3-(1-(pyrimidin-5-yl)pyrrolidin-3-yl)-N-(5-(trifluoromethyl)pyridin-3-yl)benzamide] | < 5 | < 5
20 | O=C(Nc1cncc(C(F)(F)F)c1)c1ccc(C(F)F)c(C2CCN(c3cncnc3)C2)c1 (centres unmarked) [Example 120, 4-(difluoromethyl)-3-(1-(pyrimidin-5-yl)pyrrolidin-3-yl)-N-(5-(trifluoromethyl)pyridin-3-yl)benzamide] | 5 to 25 | 25 to 100
21 | Cc1ccc(C(=O)c2cncc(C(F)(F)F)c2)cc1[C@@H]1CCN(c2cnc3ccc(CO)cn23)C1 [Example 123, (S)-(3-(1-(6-(hydroxymethyl)imidazo[1,2-a]pyridin-3-yl)pyrrolidin-3-yl)-4-methylphenyl)(5-(trifluoromethyl)pyridin-3-yl)methanone] | < 5 | < 5
22 | Cn1nc(NC(=O)c2ccc(C(F)F)c(C3CCN(c4cncnc4)C3)c2)cc1C(C)(C)C (centres unmarked) [Example 124, N-(5-(tert-butyl)-1-methyl-1H-pyrazol-3-yl)-4-(difluoromethyl)-3-(1-(pyrimidin-5-yl)pyrrolidin-3-yl)benzamide] | < 5 | 5 to 25
23 | Cc1ccc(C(=O)Nc2cncc(C(F)(F)F)c2)cc1[C@@H]1CCN(c2ncnc3cc(Br)sc23)C1 [Example 125, (S)-3-(1-(6-bromothieno[3,2-d]pyrimidin-4-yl)pyrrolidin-3-yl)-4-methyl-N-(5-(trifluoromethyl)pyridin-3-yl)benzamide] | 5 to 25 | 5 to 25
24 | Cc1ccc(C(=O)Nc2cncc(C(F)(F)F)c2)cc1[C@@H]1CCN(c2ncnc3cc(C(=O)N4CCN(C)CC4)sc23)C1 [Example 126, (S)-4-methyl-3-(1-(6-(4-methylpiperazine-1-carbonyl)thieno[3,2-d]pyrimidin-4-yl)pyrrolidin-3-yl)-N-(5-(trifluoromethyl)pyridin-3-yl)benzamide] | < 5 | 5 to 25
25 | CNC(=O)c1cc(N2CCC(c3cc(C(=O)Nc4cncc(C(F)(F)F)c4)ccc3OC)C2)ccn1 (centres unmarked) [Example 127, 4-(3-(2-methoxy-5-((5-(trifluoromethyl)pyridin-3-yl)carbamoyl)phenyl)pyrrolidin-1-yl)-N-methylpicolinamide] | < 5 | 5 to 25
